Test results from US12479847B2 (DANA-FARBER CANCER INSTITUTE, INC., priority 2019, dated 2025).

What was measured:
Assay in all cases: KINOMEscan (ScanMAX) kinase profiling
Assay type in all cases: binding
[1] = molecular target: T1, panel of 468 kinases (Homo sapiens, UniProt O95819); settings: MAP4K4; 1 μM; read-out: % control
T1 construct: purchased KINOMEscan (ScanMAX) service

[2] = molecular target: T2, panel of 468 kinases (Homo sapiens, UniProt O96013); settings: PAK4; 1 μM; read-out: % control
T2 construct: purchased KINOMEscan (ScanMAX) service

[3] = molecular target: T3, panel of 468 kinases (Homo sapiens, UniProt P04626); settings: ERBB2; 1 μM; read-out: % control
T3 construct: purchased KINOMEscan (ScanMAX) service
T3 sequence (P04626 23-1255): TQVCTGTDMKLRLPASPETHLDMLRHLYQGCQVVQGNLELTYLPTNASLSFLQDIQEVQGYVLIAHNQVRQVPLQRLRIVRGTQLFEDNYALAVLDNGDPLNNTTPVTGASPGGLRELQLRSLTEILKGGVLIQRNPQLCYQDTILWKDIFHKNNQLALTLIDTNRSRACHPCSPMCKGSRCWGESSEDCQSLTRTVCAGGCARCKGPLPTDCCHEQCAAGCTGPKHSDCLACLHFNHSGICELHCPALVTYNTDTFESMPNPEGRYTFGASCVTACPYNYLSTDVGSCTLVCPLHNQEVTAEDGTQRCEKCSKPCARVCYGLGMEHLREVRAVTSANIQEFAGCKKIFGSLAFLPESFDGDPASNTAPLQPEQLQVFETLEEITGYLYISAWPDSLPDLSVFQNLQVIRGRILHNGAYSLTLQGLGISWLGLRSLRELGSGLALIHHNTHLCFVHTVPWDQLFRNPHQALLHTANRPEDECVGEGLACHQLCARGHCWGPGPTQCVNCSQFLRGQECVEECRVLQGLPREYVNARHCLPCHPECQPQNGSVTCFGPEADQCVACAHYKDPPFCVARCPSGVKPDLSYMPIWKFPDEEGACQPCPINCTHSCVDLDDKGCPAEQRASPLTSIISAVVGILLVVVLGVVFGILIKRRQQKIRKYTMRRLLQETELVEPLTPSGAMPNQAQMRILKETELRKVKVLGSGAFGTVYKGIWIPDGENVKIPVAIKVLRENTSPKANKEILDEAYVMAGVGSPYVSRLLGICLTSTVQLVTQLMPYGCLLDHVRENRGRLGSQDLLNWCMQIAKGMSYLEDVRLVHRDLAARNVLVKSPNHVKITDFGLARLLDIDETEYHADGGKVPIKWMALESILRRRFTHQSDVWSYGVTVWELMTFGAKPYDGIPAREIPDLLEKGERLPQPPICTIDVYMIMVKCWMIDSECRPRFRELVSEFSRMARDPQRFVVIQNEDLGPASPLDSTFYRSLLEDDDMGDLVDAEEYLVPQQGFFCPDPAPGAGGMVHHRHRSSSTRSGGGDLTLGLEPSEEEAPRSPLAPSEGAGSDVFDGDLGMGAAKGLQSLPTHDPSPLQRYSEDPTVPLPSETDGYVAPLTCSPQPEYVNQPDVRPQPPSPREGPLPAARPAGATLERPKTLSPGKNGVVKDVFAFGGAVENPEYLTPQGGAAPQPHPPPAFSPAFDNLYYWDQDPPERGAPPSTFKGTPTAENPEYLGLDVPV

[4] = molecular target: T4, panel of 468 kinases (Homo sapiens, UniProt P0C1S8); settings: WEE2; 1 μM; read-out: % control
T4 construct: purchased KINOMEscan (ScanMAX) service

[5] = molecular target: T5, panel of 468 kinases (Homo sapiens, UniProt P31749); settings: AKT1; 1 μM; read-out: % control
T5 construct: purchased KINOMEscan (ScanMAX) service

[6] = molecular target: T6, panel of 468 kinases (Homo sapiens, UniProt P35968); settings: VEGFR2; 1 μM; read-out: % control
T6 construct: purchased KINOMEscan (ScanMAX) service

[7] = molecular target: T7, panel of 468 kinases (Homo sapiens, UniProt P51957); settings: NEK4; 1 μM; read-out: % control
T7 construct: purchased KINOMEscan (ScanMAX) service
T7 sequence (P51957 whole entry): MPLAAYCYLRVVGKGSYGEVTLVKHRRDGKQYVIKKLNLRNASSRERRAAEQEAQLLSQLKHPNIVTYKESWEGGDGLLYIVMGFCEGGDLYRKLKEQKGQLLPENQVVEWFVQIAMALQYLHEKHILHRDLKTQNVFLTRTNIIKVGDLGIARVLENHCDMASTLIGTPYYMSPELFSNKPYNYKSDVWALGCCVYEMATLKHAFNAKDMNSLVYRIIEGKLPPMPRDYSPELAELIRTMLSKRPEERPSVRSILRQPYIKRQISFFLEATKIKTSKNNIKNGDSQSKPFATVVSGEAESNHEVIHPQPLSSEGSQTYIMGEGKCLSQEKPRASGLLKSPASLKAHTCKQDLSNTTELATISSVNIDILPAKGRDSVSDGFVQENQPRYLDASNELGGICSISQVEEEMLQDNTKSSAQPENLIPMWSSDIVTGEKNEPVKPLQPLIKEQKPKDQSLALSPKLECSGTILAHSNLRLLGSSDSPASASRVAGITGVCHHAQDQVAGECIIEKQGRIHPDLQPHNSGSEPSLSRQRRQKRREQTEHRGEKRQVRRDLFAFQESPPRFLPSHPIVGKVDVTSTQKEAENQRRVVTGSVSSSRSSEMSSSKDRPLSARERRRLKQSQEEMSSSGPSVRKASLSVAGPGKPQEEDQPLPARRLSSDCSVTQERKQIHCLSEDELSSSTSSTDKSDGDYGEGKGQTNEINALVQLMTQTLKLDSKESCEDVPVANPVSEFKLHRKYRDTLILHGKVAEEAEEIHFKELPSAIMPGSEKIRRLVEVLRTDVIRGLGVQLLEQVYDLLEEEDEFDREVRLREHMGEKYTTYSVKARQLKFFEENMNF

[8] = molecular target: T8, panel of 468 kinases (Homo sapiens, UniProt Q14680); settings: MELK; 1 μM; read-out: % control
T8 construct: purchased KINOMEscan (ScanMAX) service

[9] = molecular target: T9, panel of 468 kinases (Homo sapiens, UniProt Q15835); settings: GRK1; 1 μM; read-out: % control
T9 construct: purchased KINOMEscan (ScanMAX) service
T9 sequence (Q15835 1-563): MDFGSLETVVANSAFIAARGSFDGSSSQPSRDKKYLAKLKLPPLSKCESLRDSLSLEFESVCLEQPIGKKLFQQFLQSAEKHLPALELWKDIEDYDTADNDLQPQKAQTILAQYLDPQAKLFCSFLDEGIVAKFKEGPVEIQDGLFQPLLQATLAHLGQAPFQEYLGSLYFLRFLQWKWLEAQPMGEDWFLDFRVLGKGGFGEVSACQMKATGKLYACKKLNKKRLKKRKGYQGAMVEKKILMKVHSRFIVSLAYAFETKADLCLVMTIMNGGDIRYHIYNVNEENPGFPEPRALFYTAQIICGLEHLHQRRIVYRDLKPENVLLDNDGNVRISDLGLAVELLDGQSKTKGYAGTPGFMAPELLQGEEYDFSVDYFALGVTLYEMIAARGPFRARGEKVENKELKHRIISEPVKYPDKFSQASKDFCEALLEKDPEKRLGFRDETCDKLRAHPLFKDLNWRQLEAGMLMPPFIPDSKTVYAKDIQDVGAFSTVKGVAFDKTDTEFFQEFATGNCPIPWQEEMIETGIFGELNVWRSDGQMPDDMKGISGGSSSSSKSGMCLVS

[10] = molecular target: T10, panel of 468 kinases (Homo sapiens, UniProt Q16513); settings: PKN2; 1 μM; read-out: % control
T10 construct: purchased KINOMEscan (ScanMAX) service
T10 sequence (Q16513 whole entry): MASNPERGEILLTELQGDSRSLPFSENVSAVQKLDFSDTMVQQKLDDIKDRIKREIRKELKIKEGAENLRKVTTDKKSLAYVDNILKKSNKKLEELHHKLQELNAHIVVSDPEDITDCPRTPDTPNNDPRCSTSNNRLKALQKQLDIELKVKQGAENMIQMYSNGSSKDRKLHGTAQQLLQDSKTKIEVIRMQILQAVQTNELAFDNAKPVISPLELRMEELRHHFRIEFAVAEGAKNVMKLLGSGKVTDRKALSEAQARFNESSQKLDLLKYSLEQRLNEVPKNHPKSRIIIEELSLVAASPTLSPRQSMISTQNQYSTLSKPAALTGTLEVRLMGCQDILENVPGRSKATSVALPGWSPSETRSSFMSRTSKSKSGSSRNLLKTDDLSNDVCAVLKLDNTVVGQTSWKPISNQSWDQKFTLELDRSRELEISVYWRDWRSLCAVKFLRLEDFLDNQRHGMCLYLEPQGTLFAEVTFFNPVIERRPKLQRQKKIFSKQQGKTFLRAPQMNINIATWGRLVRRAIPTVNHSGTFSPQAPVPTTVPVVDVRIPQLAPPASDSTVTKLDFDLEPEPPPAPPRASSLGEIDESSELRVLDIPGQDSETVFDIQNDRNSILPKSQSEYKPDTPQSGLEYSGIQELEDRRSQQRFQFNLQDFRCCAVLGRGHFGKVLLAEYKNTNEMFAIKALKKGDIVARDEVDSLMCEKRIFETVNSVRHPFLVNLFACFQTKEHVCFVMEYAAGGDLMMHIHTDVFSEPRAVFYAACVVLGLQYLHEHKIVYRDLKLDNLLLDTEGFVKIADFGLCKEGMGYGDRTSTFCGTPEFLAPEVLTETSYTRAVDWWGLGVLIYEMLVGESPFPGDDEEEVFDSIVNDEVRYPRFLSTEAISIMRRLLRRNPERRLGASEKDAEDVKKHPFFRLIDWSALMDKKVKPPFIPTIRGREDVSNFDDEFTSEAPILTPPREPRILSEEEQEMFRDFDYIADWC

[11] = molecular target: T11, panel of 468 kinases (Homo sapiens, UniProt Q6XUX3); settings: RIPK5; 1 μM; read-out: % control
T11 construct: purchased KINOMEscan (ScanMAX) service
T11 sequence (Q6XUX3 1-929): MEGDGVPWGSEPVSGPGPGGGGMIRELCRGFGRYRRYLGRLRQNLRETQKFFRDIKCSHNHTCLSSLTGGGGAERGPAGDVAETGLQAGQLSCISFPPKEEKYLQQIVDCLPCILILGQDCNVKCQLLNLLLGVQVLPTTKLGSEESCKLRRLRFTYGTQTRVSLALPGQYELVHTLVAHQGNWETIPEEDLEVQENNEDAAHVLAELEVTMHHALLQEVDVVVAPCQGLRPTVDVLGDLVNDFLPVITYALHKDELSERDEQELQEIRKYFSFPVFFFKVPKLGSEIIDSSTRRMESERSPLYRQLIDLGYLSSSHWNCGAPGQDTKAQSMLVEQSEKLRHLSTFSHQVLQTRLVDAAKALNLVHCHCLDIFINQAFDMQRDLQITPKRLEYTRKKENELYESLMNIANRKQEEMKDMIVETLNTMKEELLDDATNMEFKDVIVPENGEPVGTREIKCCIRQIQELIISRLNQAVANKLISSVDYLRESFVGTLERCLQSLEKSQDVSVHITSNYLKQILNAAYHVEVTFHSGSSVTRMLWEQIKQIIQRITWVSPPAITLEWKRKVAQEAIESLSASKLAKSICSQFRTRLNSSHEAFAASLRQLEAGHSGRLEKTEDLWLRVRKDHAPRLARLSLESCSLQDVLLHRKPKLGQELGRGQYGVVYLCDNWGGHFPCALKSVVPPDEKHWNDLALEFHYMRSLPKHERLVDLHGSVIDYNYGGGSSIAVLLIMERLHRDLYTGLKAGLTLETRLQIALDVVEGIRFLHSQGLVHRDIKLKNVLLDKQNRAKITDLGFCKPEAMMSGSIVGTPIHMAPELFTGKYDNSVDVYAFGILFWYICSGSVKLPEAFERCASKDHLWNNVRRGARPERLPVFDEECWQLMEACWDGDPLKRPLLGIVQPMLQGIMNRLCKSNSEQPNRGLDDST

[12] = molecular target: T12, panel of 468 kinases (Homo sapiens, UniProt Q96SB4); settings: SRPK1; 1 μM; read-out: % control
T12 construct: purchased KINOMEscan (ScanMAX) service
T12 sequence (Q96SB4 whole entry): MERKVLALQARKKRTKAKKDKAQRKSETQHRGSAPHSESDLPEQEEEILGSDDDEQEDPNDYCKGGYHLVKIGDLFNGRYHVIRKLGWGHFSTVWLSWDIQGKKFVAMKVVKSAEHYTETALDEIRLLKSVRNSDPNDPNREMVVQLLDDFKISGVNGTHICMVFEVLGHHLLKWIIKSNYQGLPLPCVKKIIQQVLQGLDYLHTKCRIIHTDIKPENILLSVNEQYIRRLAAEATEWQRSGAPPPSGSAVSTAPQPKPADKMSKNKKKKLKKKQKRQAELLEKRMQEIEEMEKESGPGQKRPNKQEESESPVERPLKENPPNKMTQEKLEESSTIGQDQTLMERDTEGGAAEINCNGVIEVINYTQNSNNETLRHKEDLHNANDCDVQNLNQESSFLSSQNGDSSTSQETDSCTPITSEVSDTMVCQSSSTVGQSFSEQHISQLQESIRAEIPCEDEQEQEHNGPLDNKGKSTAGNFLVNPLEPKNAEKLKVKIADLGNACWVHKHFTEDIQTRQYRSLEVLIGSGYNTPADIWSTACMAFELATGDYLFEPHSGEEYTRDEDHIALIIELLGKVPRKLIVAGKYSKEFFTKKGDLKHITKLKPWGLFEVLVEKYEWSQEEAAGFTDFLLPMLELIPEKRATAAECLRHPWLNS

[13] = molecular target: T13, panel of 468 kinases (Homo sapiens, UniProt Q9H4A3); settings: WNK1; 1 μM; read-out: % control
T13 construct: purchased KINOMEscan (ScanMAX) service

[14] = molecular target: T14, panel of 468 kinases (Homo sapiens, UniProt Q9Y2I7); settings: PIKFYVE; 1 μM; read-out: % control
T14 construct: purchased KINOMEscan (ScanMAX) service

T1 sequence (O95819 whole entry): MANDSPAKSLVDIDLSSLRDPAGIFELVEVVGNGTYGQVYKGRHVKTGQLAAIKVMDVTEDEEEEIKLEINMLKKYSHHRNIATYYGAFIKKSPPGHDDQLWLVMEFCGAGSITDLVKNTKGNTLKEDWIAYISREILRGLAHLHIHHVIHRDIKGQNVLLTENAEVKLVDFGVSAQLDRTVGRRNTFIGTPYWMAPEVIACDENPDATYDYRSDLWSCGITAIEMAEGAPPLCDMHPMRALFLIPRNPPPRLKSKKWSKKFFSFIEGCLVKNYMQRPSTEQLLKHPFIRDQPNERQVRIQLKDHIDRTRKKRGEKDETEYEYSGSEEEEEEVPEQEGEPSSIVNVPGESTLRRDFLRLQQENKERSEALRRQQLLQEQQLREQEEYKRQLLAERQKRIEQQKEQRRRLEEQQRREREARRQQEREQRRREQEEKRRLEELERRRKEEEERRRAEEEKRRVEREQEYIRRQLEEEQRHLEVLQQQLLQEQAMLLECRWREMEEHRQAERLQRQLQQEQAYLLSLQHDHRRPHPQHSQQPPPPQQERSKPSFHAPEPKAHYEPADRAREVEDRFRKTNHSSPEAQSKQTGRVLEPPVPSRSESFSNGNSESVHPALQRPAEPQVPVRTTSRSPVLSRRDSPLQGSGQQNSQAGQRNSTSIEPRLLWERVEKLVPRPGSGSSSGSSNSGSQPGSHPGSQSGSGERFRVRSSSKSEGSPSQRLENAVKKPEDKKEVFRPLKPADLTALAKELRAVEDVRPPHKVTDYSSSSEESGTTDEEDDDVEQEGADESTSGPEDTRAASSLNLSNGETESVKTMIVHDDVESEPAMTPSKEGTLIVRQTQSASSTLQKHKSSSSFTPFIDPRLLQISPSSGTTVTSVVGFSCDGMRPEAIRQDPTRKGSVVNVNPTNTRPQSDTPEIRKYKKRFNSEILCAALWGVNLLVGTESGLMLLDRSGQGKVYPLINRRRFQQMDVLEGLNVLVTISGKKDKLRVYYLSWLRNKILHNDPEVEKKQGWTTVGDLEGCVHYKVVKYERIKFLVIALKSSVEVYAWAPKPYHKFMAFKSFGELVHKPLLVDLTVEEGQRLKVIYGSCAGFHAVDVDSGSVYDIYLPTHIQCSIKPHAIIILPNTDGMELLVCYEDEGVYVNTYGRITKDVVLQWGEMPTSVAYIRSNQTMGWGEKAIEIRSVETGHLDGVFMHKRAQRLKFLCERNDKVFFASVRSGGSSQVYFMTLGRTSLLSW

Compound | remaining binding at 1 µM [1] | remaining binding at 1 µM [2] | remaining binding at 1 µM [3] | remaining binding at 1 µM [4] | remaining binding at 1 µM [5] | remaining binding at 1 µM [6] | remaining binding at 1 µM [7] | remaining binding at 1 µM [8] | remaining binding at 1 µM [9] | remaining binding at 1 µM [10] | remaining binding at 1 µM [11] | remaining binding at 1 µM [12] | remaining binding at 1 µM [13] | remaining binding at 1 µM [14]
CNc1nc(Nc2ccc(C(=O)N3CCC(N4CCOCC4)CC3)c3c2OCO3)nc2[nH]cc(Cl)c12 [Compound 75, (7-((5-chloro-4-(methylamino)-7H-pyrrolo[2,3-d]pyrimidin-2-yl)amino)benzo[d][1,3]dioxol-4-yl)(4-morpholinopiperidin-1-yl)methanone] | 54% | 100% | 85% | 100% | 100% | 54% | 100% | 30% | 88% | 91% | 9.9% | 53% | 100% | 72%
CNc1nc(Nc2ccc(S(=O)(=O)N3CCC(N4CCOCC4)CC3)cc2OC)nc2[nH]cc(Cl)c12 [Compound 12, 5-chloro-N2-(2-methoxy-4-((4-morpholinopiperidin-1-yl)sulfonyl)phenyl)-N4-methyl-7H-pyrrolo[2,3-d]pyrimidine-2,4-diamine] | 95% | 100% | 80% | 100% | 100% | 91% | 100% | 100% | 79% | 99% | 23% | 96% | 100% | 64%
CNc1nc(Nc2ccc(P3(=O)CCN(C4CCOCC4)CC3)cc2OC)nc2[nH]cc(Cl)c12 [Compound 77, 4-(4-((5-chloro-4-(methylamino)-7H-pyrrolo[2,3-d]pyrimidin-2-yl)amino)-3-methoxyphenyl)-1-(tetrahydro-2H-pyran-4-yl)-1,4-azaphosphinane 4-oxide] | 100% | 100% | 99% | 100% | 100% | 91% | 100% | 85% | 88% | 100% | 20% | 96% | 91% | 70%
